Laboratory results taken from patent publication US20080188483A1, “Compounds and Compositions as Protein Kinase Inhibitors” (IRM LLC, priority 2006, published 2008).

Tests used:
[1] = target: T1, G250E Bcr-abl (Ba/F3 cells) (Homo sapiens, UniProt P00519, G250E); assay: Proliferation of Ba/F3 cells expressing mutant Bcr-abl G250E; assay type: cell-based
T1 construct: expressed in transfected cells; host or cells: Ba/F3; the other entry of the earlier key: BCR (P11274, Breakpoint cluster region protein)
Method: (§1) 2D-p210 cells are plated into 96 well TC plates at a density of 15,000 cells per well. 50 μL of two fold serial dilutions of the test compound (Cmax is 40 μM) are added to each well (STI571 is included as a positive control). After incubating the cells for 48 hours at 37° C., 5% CO2, 15 μL of MTT (Promega) is added to each well and the cells are incubated for an additional 5 hours. The optical density at 570 nm is quantified spectrophotometrically and IC50 values, the concentration of compound required for 50% inhibition, determined from a dose response curve.
(§2) Compounds of the invention are tested for their antiproliferative effect on Ba/F3 cells expressing either wild type or the mutant forms of BCR-Abl (G250E, E255V, T315I, F317L, M351T) that confers resistance or diminished sensitivity to STI571. The antiproliferative effect of these compounds on the mutant-BCR-Abl expressing cells and on the non transformed cells were tested at 10, 3.3, 1.1 and 0.37 μM as described above (in media lacking IL3). The IC50 values of the compounds lacking toxicity on the untransformed cells were determined from the dose response curves obtained as describe above.

[2] = target: T2, T315I Bcr-abl (Ba/F3 cells) (Homo sapiens, UniProt P00519, T315I); assay: Proliferation of Ba/F3 cells expressing mutant Bcr-abl T315I; assay type: cell-based
T2 construct: expressed in transfected cells; host or cells: Ba/F3; the other entry of the earlier key: BCR (P11274, Breakpoint cluster region protein)
Method: as §1, §2

[3] = target: T3, F317L Bcr-abl (Ba/F3 cells) (Homo sapiens, UniProt P00519, F317L); assay: Proliferation of Ba/F3 cells expressing mutant Bcr-abl F317L; assay type: cell-based
T3 construct: expressed in transfected cells; host or cells: Ba/F3; the other entry of the earlier key: BCR (P11274, Breakpoint cluster region protein)
Method: as §1, §2

[4] = target: T4, M351T Bcr-abl (Ba/F3 cells) (Homo sapiens, UniProt P00519, M351T); assay: Proliferation of Ba/F3 cells expressing mutant Bcr-abl M351T; assay type: cell-based
T4 construct: expressed in transfected cells; host or cells: Ba/F3; the other entry of the earlier key: BCR (P11274, Breakpoint cluster region protein)
Method: as §1, §2

[5] = tested on: b-Raf (A375 cells, V599E mutation); assay: b-Raf cellular assay (phosphorylation of MEK in A375 cells); assay type: cell-based; details: Homo sapiens, A-375, phospho-MEK
Method: Compounds of the invention are tested in A375 cells for their ability to inhibit phosphorylation of MEK. A375 cell line (ATCC) is derived from a human melanoma patient and it has a V599E mutation on the B-Raf gene. The levels of phosphorylated MEK are elevated due to the mutation of B-Raf. Sub-confluent to confluent A375 cells are incubated with compounds for 2 hours at 37° C. in serum free medium. Cells are then washed once with cold PBS and lysed with the lysis buffer containing 1% Triton X100. After centrifugation, the supernatants are subjected to SDS-PAGE, and then transferred to nitrocellulose membranes. The membranes are then subjected to western blotting with anti-phospho-MEK antibody (ser217/221) (Cell Signaling). The amount of phosphorylated MEK is monitored by the density of phospho-MEK bands on the nitrocellulose membranes.

Abl = target: T5, Abl (Homo sapiens, UniProt P00519); assay: Upstate KinaseProfiler radio-enzymatic filter binding assay; assay type: biochemical; details: at a concentration of 10 μM; read-out: percentage inhibition of Abl
T5 construct: purchased Upstate
Method: (§3) Compounds of the invention are assessed for their ability to inhibit individual members of a panel of kinases (a partial, non-limiting list of kinases includes: Abl, BMX, BTK, CHK2, c-RAF, CSK, c-SRC, Fes, FGFR3, Flt3, IKKα, IKKβ, JNK2α2, Lck, Met, MKK4, MKK6, MST2, NEK2, p70S6K, PDGFRβ, PKA, PKBα, PKD2, Rsk1, SAPK2α, SAPK2β, SAPK3, SGK, Tie2 and/or TrkB. The compounds are tested in duplicates at a final concentration of 10 μM following this generic protocol. Note that the kinase buffer composition and the substrates vary for the different kinases included in the “Upstate KinaseProfiler™” panel. Kinase buffer (2.5 μL, 10×—containing MnCl2 when required), active kinase (0.001-0.01 Units; 2.5 μL), specific or Poly(Glu4-Tyr) peptide (5-500 μM or 0.01 mg/ml) in kinase buffer and kinase buffer (50 μM; 5 μL) are mixed in an eppendorf on ice. A Mg/ATP mix (10 μL; 67.5 (or 33.75) mM MgCl2, 450 (or 225) μM ATP and 1 μCi/μl [γ-^32P]-ATP (3000 Ci/mmol)) is added and the reaction is incubated at about 30° C. for about 10 minutes. The reaction mixture is spotted (20 μL) onto a 2 cm×2 cm P81 (phosphocellulose, for positively charged peptide substrates) or Whatman No. 1 (for Poly (Glu4-Tyr) peptide substrate) paper square. The assay squares are washed 4 times, for 5 minutes each, with 0.75% phosphoric acid and washed once with acetone for 5 minutes. The assay squares are transferred to a scintillation vial, 5 ml scintillation cocktail are added and ^32P incorporation (cpm) to the peptide substrate is quantified with a Beckman scintillation counter. Percentage inhibition is calculated for each reaction.

BTK = target: T6, BTK (Homo sapiens, UniProt Q06187); assay: as above; assay type: biochemical; details: at a concentration of 10 μM; read-out: percentage inhibition of BTK
T6 construct: purchased Upstate
T6 sequence (Q06187 whole entry): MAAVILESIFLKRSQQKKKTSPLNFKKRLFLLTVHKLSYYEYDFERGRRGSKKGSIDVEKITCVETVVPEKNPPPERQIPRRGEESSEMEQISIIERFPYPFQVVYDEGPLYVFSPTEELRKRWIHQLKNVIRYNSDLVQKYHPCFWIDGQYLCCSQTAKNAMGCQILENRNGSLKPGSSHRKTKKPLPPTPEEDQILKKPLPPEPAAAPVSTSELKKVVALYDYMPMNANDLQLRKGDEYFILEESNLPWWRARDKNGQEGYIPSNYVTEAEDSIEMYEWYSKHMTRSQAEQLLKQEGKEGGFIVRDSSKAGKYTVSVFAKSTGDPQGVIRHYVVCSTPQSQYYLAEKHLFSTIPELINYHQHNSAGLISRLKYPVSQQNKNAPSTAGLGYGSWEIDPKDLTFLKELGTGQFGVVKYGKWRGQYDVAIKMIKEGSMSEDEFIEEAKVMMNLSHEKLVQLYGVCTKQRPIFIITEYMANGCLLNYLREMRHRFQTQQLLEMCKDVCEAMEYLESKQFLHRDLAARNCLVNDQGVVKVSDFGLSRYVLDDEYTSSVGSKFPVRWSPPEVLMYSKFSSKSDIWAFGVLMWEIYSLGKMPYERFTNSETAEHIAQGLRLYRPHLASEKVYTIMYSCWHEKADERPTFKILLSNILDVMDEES
Method: as §3

CSK = target: T7, CSK (Homo sapiens, UniProt P41240); assay: as above; assay type: biochemical; details: at a concentration of 10 μM; read-out: percentage inhibition of CSK
T7 construct: purchased Upstate
T7 sequence (P41240 whole entry): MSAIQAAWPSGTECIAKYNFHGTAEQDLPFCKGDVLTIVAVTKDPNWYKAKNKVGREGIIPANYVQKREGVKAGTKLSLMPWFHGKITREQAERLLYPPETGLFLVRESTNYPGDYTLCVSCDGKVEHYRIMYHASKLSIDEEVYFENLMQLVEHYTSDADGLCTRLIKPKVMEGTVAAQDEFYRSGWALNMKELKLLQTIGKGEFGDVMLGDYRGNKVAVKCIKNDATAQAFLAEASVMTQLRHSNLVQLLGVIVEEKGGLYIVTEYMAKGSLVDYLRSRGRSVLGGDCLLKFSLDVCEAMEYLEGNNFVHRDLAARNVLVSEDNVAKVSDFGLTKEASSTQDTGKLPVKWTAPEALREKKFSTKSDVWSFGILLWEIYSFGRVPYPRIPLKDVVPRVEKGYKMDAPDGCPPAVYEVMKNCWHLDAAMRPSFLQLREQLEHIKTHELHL
Method: as §3

MKK6 = target: T8, MKK6 (Homo sapiens, UniProt P52564); assay: as above; assay type: biochemical; details: at a concentration of 10 μM; read-out: percentage inhibition of MKK6
T8 construct: purchased Upstate
T8 sequence (P52564 whole entry): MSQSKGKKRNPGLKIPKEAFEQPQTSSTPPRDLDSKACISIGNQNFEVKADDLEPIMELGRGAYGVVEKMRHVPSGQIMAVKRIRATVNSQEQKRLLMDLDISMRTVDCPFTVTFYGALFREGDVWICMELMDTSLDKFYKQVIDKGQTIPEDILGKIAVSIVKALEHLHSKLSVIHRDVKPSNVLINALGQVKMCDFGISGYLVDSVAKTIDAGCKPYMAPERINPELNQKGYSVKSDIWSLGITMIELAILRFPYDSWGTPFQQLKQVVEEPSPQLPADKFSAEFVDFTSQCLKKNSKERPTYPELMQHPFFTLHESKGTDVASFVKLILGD
Method: as §3

PDGFRβ = target: T9, PDGFRβ (Homo sapiens, UniProt P09619); assay: as above; assay type: biochemical; details: at a concentration of 10 μM; read-out: percentage inhibition of PDGFRβ
T9 construct: purchased Upstate
T9 sequence (P09619 33-1106): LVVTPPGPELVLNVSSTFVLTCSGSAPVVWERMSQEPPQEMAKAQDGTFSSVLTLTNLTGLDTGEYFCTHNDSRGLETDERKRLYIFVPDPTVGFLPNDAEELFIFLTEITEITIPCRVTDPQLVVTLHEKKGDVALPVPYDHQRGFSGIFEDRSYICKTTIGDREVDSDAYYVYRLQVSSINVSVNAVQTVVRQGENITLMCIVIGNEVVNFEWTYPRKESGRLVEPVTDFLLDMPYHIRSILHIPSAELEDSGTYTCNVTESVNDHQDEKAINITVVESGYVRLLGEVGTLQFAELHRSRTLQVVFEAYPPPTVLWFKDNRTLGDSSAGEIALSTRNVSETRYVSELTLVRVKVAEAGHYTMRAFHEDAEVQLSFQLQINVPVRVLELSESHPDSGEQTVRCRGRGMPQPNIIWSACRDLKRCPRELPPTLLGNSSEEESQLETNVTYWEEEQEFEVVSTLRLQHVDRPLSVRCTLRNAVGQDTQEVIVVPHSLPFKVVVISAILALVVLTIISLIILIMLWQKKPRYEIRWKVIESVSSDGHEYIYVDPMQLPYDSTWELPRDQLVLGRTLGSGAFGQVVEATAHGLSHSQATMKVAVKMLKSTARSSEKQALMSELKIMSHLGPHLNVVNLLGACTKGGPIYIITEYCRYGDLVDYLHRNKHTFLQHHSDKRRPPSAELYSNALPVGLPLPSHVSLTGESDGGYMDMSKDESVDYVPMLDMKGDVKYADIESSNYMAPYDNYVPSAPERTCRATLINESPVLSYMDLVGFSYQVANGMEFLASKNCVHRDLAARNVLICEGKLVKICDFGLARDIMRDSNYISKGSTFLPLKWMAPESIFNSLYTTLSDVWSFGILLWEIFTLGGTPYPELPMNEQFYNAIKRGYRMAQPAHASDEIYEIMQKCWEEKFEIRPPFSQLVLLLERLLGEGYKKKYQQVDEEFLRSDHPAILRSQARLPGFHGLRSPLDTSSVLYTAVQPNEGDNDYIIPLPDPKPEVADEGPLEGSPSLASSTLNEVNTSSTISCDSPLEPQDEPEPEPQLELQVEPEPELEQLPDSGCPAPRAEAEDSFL
Method: as §3

Rsk1 = target: T10, Rsk1 (Homo sapiens, UniProt Q15418); assay: as above; assay type: biochemical; details: at a concentration of 10 μM; read-out: percentage inhibition of Rsk1
T10 construct: purchased Upstate
T10 sequence (Q15418 whole entry): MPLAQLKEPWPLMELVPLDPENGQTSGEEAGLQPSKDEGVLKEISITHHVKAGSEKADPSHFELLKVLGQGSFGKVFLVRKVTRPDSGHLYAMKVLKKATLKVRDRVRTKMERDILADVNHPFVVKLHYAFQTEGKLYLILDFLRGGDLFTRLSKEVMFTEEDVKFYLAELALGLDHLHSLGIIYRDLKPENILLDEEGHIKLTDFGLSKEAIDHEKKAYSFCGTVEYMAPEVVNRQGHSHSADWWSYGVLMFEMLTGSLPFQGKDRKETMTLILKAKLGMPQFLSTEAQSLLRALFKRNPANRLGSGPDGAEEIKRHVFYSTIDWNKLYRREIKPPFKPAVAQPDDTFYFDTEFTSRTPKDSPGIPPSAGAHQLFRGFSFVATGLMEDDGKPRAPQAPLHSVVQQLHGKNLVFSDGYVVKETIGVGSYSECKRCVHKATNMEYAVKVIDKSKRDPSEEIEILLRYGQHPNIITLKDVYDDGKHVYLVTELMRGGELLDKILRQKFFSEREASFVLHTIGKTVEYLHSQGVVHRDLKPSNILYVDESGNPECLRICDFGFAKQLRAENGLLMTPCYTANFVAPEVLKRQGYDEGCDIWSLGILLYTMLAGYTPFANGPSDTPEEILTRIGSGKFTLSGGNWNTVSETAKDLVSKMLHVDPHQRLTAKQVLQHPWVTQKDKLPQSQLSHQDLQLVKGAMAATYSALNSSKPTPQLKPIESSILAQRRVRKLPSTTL
Method: as §3

SAPK2α = target: T11, SAPK2α (Homo sapiens, UniProt Q16539); assay: as above; assay type: biochemical; details: at a concentration of 10 μM; read-out: percentage inhibition of SAPK2α
T11 construct: purchased Upstate
T11 sequence (Q16539 whole entry): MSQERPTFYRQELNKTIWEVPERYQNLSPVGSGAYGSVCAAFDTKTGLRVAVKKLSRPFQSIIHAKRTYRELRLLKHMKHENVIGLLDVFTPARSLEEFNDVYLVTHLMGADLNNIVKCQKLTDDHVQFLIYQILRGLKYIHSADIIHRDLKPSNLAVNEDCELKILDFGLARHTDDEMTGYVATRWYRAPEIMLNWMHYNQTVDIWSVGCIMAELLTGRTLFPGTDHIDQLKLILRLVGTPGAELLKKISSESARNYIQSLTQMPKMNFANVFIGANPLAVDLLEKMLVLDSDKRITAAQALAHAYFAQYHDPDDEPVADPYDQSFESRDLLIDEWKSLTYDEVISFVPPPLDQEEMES
Method: as §3

TrkB = target: T12, TrkB (Homo sapiens, UniProt Q16620); assay: as above; assay type: biochemical; details: at a concentration of 10 μM; read-out: percentage inhibition of TrkB
T12 construct: purchased Upstate
T12 sequence (Q16620 32-822): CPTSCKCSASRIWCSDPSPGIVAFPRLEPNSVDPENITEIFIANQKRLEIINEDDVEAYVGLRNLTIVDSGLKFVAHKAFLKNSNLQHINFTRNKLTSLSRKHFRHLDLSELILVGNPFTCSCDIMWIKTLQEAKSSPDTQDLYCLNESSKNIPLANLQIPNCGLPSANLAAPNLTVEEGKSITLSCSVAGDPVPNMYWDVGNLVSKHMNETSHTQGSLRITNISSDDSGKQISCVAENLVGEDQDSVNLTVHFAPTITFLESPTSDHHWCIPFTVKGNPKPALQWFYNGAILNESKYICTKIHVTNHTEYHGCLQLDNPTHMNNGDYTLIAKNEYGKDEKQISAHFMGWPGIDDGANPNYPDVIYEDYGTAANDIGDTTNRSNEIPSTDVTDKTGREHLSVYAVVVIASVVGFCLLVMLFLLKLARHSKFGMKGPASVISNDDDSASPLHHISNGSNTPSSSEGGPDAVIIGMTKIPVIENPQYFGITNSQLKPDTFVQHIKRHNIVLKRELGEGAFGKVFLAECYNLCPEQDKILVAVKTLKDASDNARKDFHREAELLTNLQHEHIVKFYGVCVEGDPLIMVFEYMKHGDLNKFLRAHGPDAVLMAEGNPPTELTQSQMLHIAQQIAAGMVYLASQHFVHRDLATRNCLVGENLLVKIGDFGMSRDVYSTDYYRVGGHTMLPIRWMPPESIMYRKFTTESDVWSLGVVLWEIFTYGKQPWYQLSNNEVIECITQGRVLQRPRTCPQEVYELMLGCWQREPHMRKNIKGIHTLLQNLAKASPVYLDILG
Method: as §3

p70S6K = target: T13, p70S6K (Homo sapiens, UniProt P23443); assay: as above; assay type: biochemical; details: at a concentration of 10 μM; read-out: percentage inhibition of p70S6K
T13 construct: purchased Upstate
T13 sequence (P23443 whole entry): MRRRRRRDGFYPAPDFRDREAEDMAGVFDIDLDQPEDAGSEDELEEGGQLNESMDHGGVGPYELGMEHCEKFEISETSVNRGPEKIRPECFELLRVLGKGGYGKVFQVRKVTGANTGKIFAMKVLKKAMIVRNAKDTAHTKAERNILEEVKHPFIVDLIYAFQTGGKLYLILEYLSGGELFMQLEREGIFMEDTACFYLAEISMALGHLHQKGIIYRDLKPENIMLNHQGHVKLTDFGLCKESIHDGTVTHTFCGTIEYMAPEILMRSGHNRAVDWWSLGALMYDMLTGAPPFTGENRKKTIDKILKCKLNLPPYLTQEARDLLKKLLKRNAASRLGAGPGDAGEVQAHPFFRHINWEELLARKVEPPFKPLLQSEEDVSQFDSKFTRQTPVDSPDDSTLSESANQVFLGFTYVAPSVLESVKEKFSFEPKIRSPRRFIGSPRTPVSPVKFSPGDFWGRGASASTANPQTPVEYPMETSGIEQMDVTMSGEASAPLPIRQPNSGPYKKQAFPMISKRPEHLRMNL
Method: as §3

Cc1cn(-c2cc(C(=O)Nc3ccc(C)c(Nc4nccn4-c4ncnc5[nH]ccc45)c3)cc(C(F)(F)F)c2)cn1 [Example 2, 3-(4-methyl-imidazol-1-yl)-N-{4-methyl-3-[1-(7H-pyrrolo[2,3-d]pyrimidin-4-yl)-1H-imidazol-2-ylamino]-phenyl}-5-trifluoromethyl-benzamide]
IC50 [1]: 56 nM | IC50 [2]: 63 nM | IC50 [3]: < 0.5 nM | IC50 [4]: < 0.5 nM | IC50 [5]: 32 nM | inhibition at 10 µM (Abl): 99% | inhibition at 10 µM (BTK): 99% | inhibition at 10 µM (CSK): 97% | inhibition at 10 µM (MKK6): 99% | inhibition at 10 µM (PDGFRβ): 83% | inhibition at 10 µM (Rsk1): 88% | inhibition at 10 µM (SAPK2α): 97% | inhibition at 10 µM (TrkB): 100% | inhibition at 10 µM (p70S6K): 86%
